The target of one assay is human A2a receptor (Homo sapiens (Human), UniProt P29274). The assay is described as follows: A2a competition binding assay using Scintillation Proximity technology. The protocol:
(§1) Binding affinities of compounds of the invention for the human A2a receptor were determined in a competition binding assay using Scintillation Proximity technology. Thus, 1* μg, or preferably 0.25 μg of membranes from HEK293 cells expressing the human A2a receptor were incubated with a compound of the invention at concentrations ranging from 3000 nM to 0.15 nM in a reaction mixture containing also 0.5 nM of a tritiated form of 5-amino-7-[2-phenethyl]-2-(furan-2-yl)-7H-pyrazolo[4,3-e][1,2,4]triazolo[1,5-c]pyrimidine (the tritiated compound) and 25 μg of wheat germ agglutin-coated yttrium silicate SPA beads for one hour at room temperature with agitation. The beads were then allowed to settle to the bottom of the wells for 1 hr, after which the membrane-associated radioactivity was determined by scintillation counting in a TopCount microplate reader. Ki values were determined using the Cheng-Prusoff equation.
HEK293 cells expressing the human, rat, dog or monkey adenosine 2a receptor (Purchased from Perkin-Elmer # RBHA2AM400UA).
The Tritiated compound was prepared in-house by MRL Radiochemistry according to published methods.
Wheat germ agglutinin-coated yttrium silicate SPA beads (GE Healthcare #RPNQ0023). Dilute to 25 mg/ml in assay buffer.
Assay Buffer was prepared in house: Dulbecco's calcium and magnesium free phosphate buffered saline+10 mM MgCl2
Adenosine deaminase from calf intestine, 10 mg/2 ml (Roche #10 102 105 001).
A2a antagonist standard (9-chloro-1-(2-furanyl)-[1,2,4]triazolo1,5-c]quinazolin-5-amine from Tocris Bioscience)
Make eight 1:3 serial dilutions in 100% DMSO from a 3 mM compound stock
Transfer 50 nl of compound into a 384-well OptiPlate (Perkin Elmer).
Typically, final concentrations of compound used in the assay ranged from 3000 nM to 0.152 nM.
Dilute a solution of the Tritiated compound to 1.25 nM in assay buffer. This is a 2.5× solution. The final concentration in the assay is 0.5 nM. Calculate the concentration by counting two 5 μl aliquots.
Use *1 ug or preferrably 0.25 ug of membrane/well. Dilute membranes to 9.7 μg/ml in assay buffer. Treat with 20 ug/ml adenosine deaminase (ADA) for 15 minutes at room temperature to degrade endogenous adenosine.
Use 25 μg/well wheat germ agglutinin-coated yttrium silicate SPA beads.
Mix ADA-treated membranes and SPA beads together for 30 min prior to assay.
To the Perkin-Elmer Optiplate-384 containing the compound titration add 20 μl of 2.5× solution of the Tritiated compound and 30 μl of the membrane-bead mixture. Incubate for one hour at room temperature with agitation.
Include total binding (assay buffer+1% DMSO) and non-specific binding (CGS15943, 1 μM) wells.
Allow the beads to settle for one hour.
A curve fitting program (i.e., Prism, Activity Base, Chemcart) is used to determine the EC50. The Ki value is calculated using the Cheng-Prusoff equation. Ki=EC50/(1+(radioligand concentration/Kd))
Using the foregoing assay method, the Ki results were obtained using the compounds of the invention described in Tables IIIa, IIIb, and IV. Each example compound tested is reported in the following format: Example number: A2a Ki reported in nM. Thus, for example, the compound Ex-1 was determined to have an Ki using the above-described assay and calculations, of 10.0 nM.
Background: In a scintillation proximity assay essentially only radioactivity close to the scintillant gives light.

A further assay concerns the target human A1 receptor (Homo sapiens (Human), UniProt P30542). The assay is described as follows: A1 competition binding assay using Scintillation Proximity technology; selectivity = A1 binding Ki / A2a binding Ki. Particulars: A1 binding Ki divided by A2a binding Ki. As to the method: as §1, with “A1” for “A2a”, “5” for “1* μg, or preferably 0.25 μg”, “CHO-K1” for “HEK293”, “0.7” for “0.5”, “8-Cyclopentyl-1,3-dipropylxanthine” for “5-amino-7-[2-phenethyl]-2-(furan-2-yl)-7H-pyrazolo[4,3-e][1,2,4]triazolo[1,5-c]pyrimidine”, “in a similar fashion described with A2a binding.” for “using the Cheng-Prusoff equation.”
• Cells expressing the human, rat, dog or monkey adenosine 1 receptor (Purchased from Perkin-Elmer # ES-010-M400UA • [^3H]DPCPX (purchased from Perkin-Elmer NET-974, 8-cyclopentyl-1,3-dipropylxanthine, [dipropyl-2,3-^3H(N)]. • Wheatgerm agglutinin-coated yttrium silicate SPA beads (Purchased from GE Healthcare #RPNQ0023). Dilute to 25 mg/ml in assay buffer. Store at 4° C. • Assay Buffer—Dulbecco's phosphate buffered saline without calcium and without magnesium+10 mM MgCl2 • Adenosine deaminase from calf intestine, 10 mg/2 ml (Roche #10 102 105 001). • DMSO • DPCPX (A1 antagonist) from Tocris Bioscience Compound Dilution • Dilute compounds to 1 mM in 100% DMSO
Make serial dilutions as necessary (i.e., 1:10, 1:3) in 100% DMSO.
Dilute 1:20 into assay buffer (i.e. 3 ul into 57 ul buffer). This is a 5× solution in 5% DMSO.
• Dilute [^3H]DPCPX to 1.75 nM in assay buffer. This is a 2.5× solution. The final concentration in the assay is 0.7 nM. Calculate the concentration by counting two 5 ul aliquots. Membrane Preparation • Use 5 ug of membrane/well. Dilute membranes to 250 ug/ml in assay buffer. Treat with 20 ug/ml adenosine deaminase (ADA) for 15 minutes at room temperature to degrade endogenous adenosine. Membrane-Bead Mixture • Use 25 ug/well wheatgerm agglutinin-coated yttrium silicate SPA beads • Mix ADA-treated membranes and SPA beads together for 30 min prior to assay. Assay Assembly • Add in order to a Perkin-Elmer Optiplate-384: 10 ul of 5× compound, 20 ul of 2.5× [^3H]DPCPX, 20 ul membrane-bead mixture. Incubate for one hour at room temperature with agitation. • Include total binding (assay buffer+1% DMSO) and non-specific binding (DPCPX, 1 uM) wells. Counting and Calculations

[1] abbreviates: 0.25 μg of membranes from HEK293 cells expressing the human A2a receptor.
The mark [2] stands for this setting: * assay run with 1 μg of membranes versus 0.25 μg, HEK293 cells expressing the human A2a receptor.

Chain of human A1 receptor (P30542 whole entry): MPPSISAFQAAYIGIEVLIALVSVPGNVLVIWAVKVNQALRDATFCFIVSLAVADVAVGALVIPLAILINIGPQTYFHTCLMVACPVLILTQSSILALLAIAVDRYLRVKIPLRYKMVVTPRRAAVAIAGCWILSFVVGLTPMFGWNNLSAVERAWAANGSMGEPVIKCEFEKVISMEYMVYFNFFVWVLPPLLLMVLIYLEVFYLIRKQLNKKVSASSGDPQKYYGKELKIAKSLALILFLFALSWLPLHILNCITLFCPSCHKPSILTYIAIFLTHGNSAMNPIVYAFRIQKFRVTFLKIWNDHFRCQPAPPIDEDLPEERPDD
Chain of human A2a receptor (P29274 whole entry): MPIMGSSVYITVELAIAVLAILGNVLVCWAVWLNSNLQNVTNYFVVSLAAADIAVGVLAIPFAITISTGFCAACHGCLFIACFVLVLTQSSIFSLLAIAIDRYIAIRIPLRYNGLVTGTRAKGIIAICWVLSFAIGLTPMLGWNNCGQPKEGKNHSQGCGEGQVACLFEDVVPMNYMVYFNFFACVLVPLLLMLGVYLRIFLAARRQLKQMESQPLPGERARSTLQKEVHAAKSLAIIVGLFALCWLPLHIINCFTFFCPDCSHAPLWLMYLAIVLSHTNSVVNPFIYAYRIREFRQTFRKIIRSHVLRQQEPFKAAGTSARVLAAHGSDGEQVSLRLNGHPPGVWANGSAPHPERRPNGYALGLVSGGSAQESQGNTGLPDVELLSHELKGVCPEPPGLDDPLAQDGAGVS

The Ki is the dissociation constant of the complex between target and ligand, obtained from inhibition or displacement. Turning to `COc1cccc2c(C(=O)NCc3ncc(C)cc3C)nc(N)nc12` [Example 28, 2-amino-N-[(3,5-dimethyl-2-pyridyl)methyl]-8-methoxy-quinazoline-4-carboxamide], the Ki at human A2a receptor (setting [1]) amounted to 1.5 nM. Besides, the “A2a selectivity (A2a A1 binding selectivity)” value (“A2a selectivity” below) at human A1 receptor is reported as 117.

For `Nc1nc(C(=O)NCc2cccc3cccnc23)c2cccc(C(F)(F)F)c2n1` [Example 92, 2-amino-N-(8-quinolylmethyl)-8-(trifluoromethyl)quinazoline-4-carboxamide], at human A2a receptor (setting [1]), the affinity, expressed as Ki, was 2.3 nM. For the same compound, the “A2a selectivity” value on human A1 receptor is given as 560.

`Nc1nc(C(=O)NCc2cccc3cncn23)c2cccc(F)c2n1` [Example 80, 2-amino-8-fluoro-N-(imidazo[1,5-a]pyridin-5-ylmethyl)quinazoline-4-carboxamide]: the Ki at human A2a receptor (setting [2]) worked out at 6.2 nM. At human A1 receptor, the “A2a selectivity” value is on record as 21.

For the compound `COc1cccc2c(C(=O)NCc3cccc4c3OC(F)(F)O4)nc(N)nc12` [Example 42, 2-amino-N-[(2,2,-difluoro-1,3-benzodioxol-4-yl)methyl]-8-methoxy-quinazoline-4-carboxamide], the affinity at human A2a receptor (setting [2]) corresponds to a Ki of 5.3 nM. For the same compound, at human A1 receptor, the “A2a selectivity” value was determined as 39.

As to `COc1cccc2c(C(=O)NCc3cccc(Cc4ccccc4)n3)nc(N)nc12` [Example 103, 2-amino-N-((6-benzylpyridin-2-yl)methyl)-8-methoxyquinazoline-4-carboxamide], the affinity on human A2a receptor (setting [2]), expressed as Ki, was 2.5 nM. For the same compound, the “A2a selectivity” value at human A1 receptor was determined as 42.

Turning to `[2H]C([2H])(NC(=O)c1nc(N)nc2c(OC)cccc12)c1cccc(Oc2cncc(OC)c2)n1` [Example 58, 2-amino-N-[dideuterio-[6-[(5-methoxy-3-pyridyl)oxy]-2-pyridyl]methyl]-8-methoxy-quinazoline-4-carboxamide], the affinity on human A2a receptor (setting [2]), expressed as Ki, was 5 nM. Also, the “A2a selectivity” value at human A1 receptor was 16.

At human A2a receptor (setting [1]), `Nc1nc(C(=O)NCC2CCN(c3ncc(F)cn3)CC2)c2cccc(F)c2n1` [Example 86, 2-amino-8-fluoro-N-[[1-(5-fluoropyrimidin-2-yl)-4-piperidyl]methyl]quinazoline-4-carboxamide] registered a Ki of 8 nM. In addition, the “A2a selectivity” value on human A1 receptor came to 141.

Take `COc1cccc2c(C(=O)NCc3cccc(COCC4CCCC4)n3)nc(N)nc12` [Example 49, 2-amino-N-[[6-(cyclopentylmethoxy-methyl)-2-pyridyl]methyl]-8-methoxy-quinazoline-4-carboxamide]: the Ki on human A2a receptor (setting [1]) turned out to be 0.5 nM. Further, the “A2a selectivity” value at human A1 receptor is 251.

For `Nc1nc(C(=O)NCc2cccc3cccnc23)c2cccc(Br)c2n1` [Example 96, 2-amino-8-bromo-N-(8-quinolylmethyl)quinazoline-4-carboxamide], the Ki on human A2a receptor (setting [2]) was determined as 0.7 nM. Further, at human A1 receptor, the “A2a selectivity” value was found to be 12.

With `COc1cccc2c(C(=O)NCc3ncc(F)cc3F)nc(N)nc12` [Example 29, 2-amino-N-[(3,5-difluoro-2-pyridyl)methyl]-8-methoxy-quinazoline-4-carboxamide], the Ki at human A2a receptor (setting [1]) was found to be 2.9 nM. In addition, on human A1 receptor, the “A2a selectivity” value turned out to be 118.

`CC(C)Oc1cccc(-c2cccc(CNC(=O)c3nc(N)nc4c(F)cccc34)n2)c1` [Example 66, 2-amino-8-fluoro-N-[[6-(3-isopropoxyphenyl)-2-pyridyl]methyl]quinazoline-4-carboxamide] showed a Ki on human A2a receptor (setting [2]) of 3.8 nM. In addition, the “A2a selectivity” value at human A1 receptor came to 3.

At human A2a receptor (setting [1]), `Nc1nc(C(=O)NCc2cccc(CO)n2)c2cccc(F)c2n1` [Example 57, 2-amino-8-fluoro-N-[[6-(hydroxymethyl)-2-pyridyl]methyl]quinazoline-4-carboxamide] displayed a Ki of 9.6 nM. Besides, at human A1 receptor, the “A2a selectivity” value came to 67.

On human A2a receptor (setting [1]), `CC(C)c1cccc(-c2cccc(CNC(=O)c3nc(N)nc4c(F)cccc34)n2)c1` [Example 65, 2-amino-8-fluoro-N-[[6-(3-isopropylphenyl)-2-pyridyl]methyl]quinazoline-4-carboxamide] yielded a Ki of 1 nM. At human A1 receptor, the “A2a selectivity” value is listed as 50.

On human A2a receptor (setting [1]), `COc1cccc2c(C(=O)NCc3ncccc3C(F)(F)F)nc(N)nc12` [Example 19, 2-amino-8-methoxy-N-[[3-(trifluoromethyl)-2-pyridyl]methyl]quinazoline-4-carboxamide] displayed a Ki of 2.6 nM. Further, the “A2a selectivity” value on human A1 receptor is 53.

`COc1cccc2c(C(=O)NCc3cccc(COc4ccc(F)cc4)n3)nc(N)nc12` [Example 45, 2-amino-N-[[6-[(4-fluorophenoxy)methyl]-2-pyridyl]methyl]-8-methoxy-quinazoline-4-carboxamide] had a Ki on human A2a receptor (setting [1]) of 0.3 nM. Also, the “A2a selectivity” value at human A1 receptor turned out to be 230.

On human A2a receptor (setting [1]), `COc1cccc2c(C(=O)NCc3cccc(COC4CCCC4)n3)nc(N)nc12` [Example 48, 2-amino-N-[[6-(cyclopentoxymethyl)-2-pyridyl]methyl]-8-methoxy-quinazoline-4-carboxamide] displayed a Ki of 0.5 nM. For the same compound, the “A2a selectivity” value at human A1 receptor is 447.

Take `Nc1nc(C(=O)NCC2CC3CCC2C3)c2cccc(F)c2n1` (centres unmarked) [Example 87, 2-amino-8-fluoro-N-(norbornan-2-ylmethyl)quinazoline-4-carboxamide]: the affinity at human A2a receptor (setting [2]) corresponds to a Ki of 32 nM. For the same compound, the “A2a selectivity” value on human A1 receptor came to 3.

In turn, `Nc1nc(C(=O)NCc2cccc3cccnc23)c2cccc(-c3cncnc3)c2n1` [Example 97, 2-amino-8-pyrimidin-5-yl-N-(8-quinolylmethyl)quinazoline-4-carboxamide] came in with a Ki at human A2a receptor (setting [1]) of 291 nM. Moreover, the “A2a selectivity” value at human A1 receptor is 1.

In turn, `COc1cccc2c(C(=O)NC3CCc4cccnc43)nc(N)nc12` (centres unmarked) [Example 32, 2-amino-N-(6,7-dihydro-5H-cyclopenta[b]pyridin-7-yl)-8-methoxy-quinazoline-4-carboxamide] registered a Ki on human A2a receptor (setting [1]) of 1.8 nM. On human A1 receptor, the “A2a selectivity” value is recorded as 370.

The values are drawn from US10138212B2, “Aminoquinazoline compounds as A2A antagonist” (Merck Sharp & Dohme Corp., priority 2015, dated 2018).
